From PubChem BioAssay (NCI)
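1) Cells in 96-well plates. 2) Compound, 48 h, 5 concentrations. 3) Linear interpolation between surrounding doses. 4) Unreached endpoint = highest concentration. The concentration for full growth arrest is given as TGI.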

Legend:
Assay in all cases: NCI anticancer screen, dose series, 48 h
HCT-116 colon = system: HCT-116 colon
HCT-15 colon = system: HCT-15 colon
CCRF-CEM leukemia = system: CCRF-CEM leukemia
NCI-H226 lung = system: NCI-H226 lung
NCI-H522 lung = system: NCI-H522 lung
IGROV1 ovarian = system: IGROV1 ovarian
HL-60(TB) leukemia = system: HL-60(TB) leukemia
SK-MEL-5 melanoma = system: SK-MEL-5 melanoma
A549 NSCLC = system: A549 NSCLC
HCC-2998 colon = system: HCC-2998 colon
MDA-N = system: MDA-N
OVCAR-8 ovarian = system: OVCAR-8 ovarian
HOP-62 NSCLC = system: HOP-62 NSCLC
HS 578T breast = system: HS 578T breast
DU-145 prostate = system: DU-145 prostate
MALME-3M melanoma = system: MALME-3M melanoma
RPMI-8226 leukemia = system: RPMI-8226 leukemia
SNB-19 CNS = system: SNB-19 CNS
MOLT-4 leukemia = system: MOLT-4 leukemia
NCI/ADR-RES ovarian = system: NCI/ADR-RES ovarian
SK-MEL-28 melanoma = system: SK-MEL-28 melanoma
K-562 leukemia = system: K-562 leukemia
UACC-257 melanoma = system: UACC-257 melanoma
SR leukemia = system: SR leukemia
M14 melanoma = system: M14 melanoma
UO-31 renal = system: UO-31 renal
MDA-MB-231 breast = system: MDA-MB-231 breast
SW-620 colon = system: SW-620 colon
KM12 colon = system: KM12 colon
NCI-H23 lung = system: NCI-H23 lung
OVCAR-3 ovarian = system: OVCAR-3 ovarian
786-0 renal = system: 786-0 renal
SF-295 CNS = system: SF-295 CNS
SNB-75 CNS = system: SNB-75 CNS
MCF7 breast = system: MCF7 breast
U251 CNS = system: U251 CNS
NCI-H460 lung = system: NCI-H460 lung
PC-3 prostate = system: PC-3 prostate
SN12C renal = system: SN12C renal
COLO 205 colon = system: COLO 205 colon
SK-MEL-2 melanoma = system: SK-MEL-2 melanoma
ACHN renal = system: ACHN renal
HOP-92 NSCLC = system: HOP-92 NSCLC
SF-268 CNS = system: SF-268 CNS
T-47D breast = system: T-47D breast
TK-10 renal = system: TK-10 renal
SF-539 CNS = system: SF-539 CNS
LOX IMVI melanoma = system: LOX IMVI melanoma
EKVX NSCLC = system: EKVX NSCLC
CAKI-1 renal = system: CAKI-1 renal
OVCAR-5 ovarian = system: OVCAR-5 ovarian
A498 renal = system: A498 renal
SK-OV-3 ovarian = system: SK-OV-3 ovarian
HT29 colon = system: HT29 colon
RXF 393 renal = system: RXF 393 renal
MDA-MB-435 = system: MDA-MB-435
UACC-62 melanoma = system: UACC-62 melanoma
BT-549 breast = system: BT-549 breast

Question: For `O=C1CSC(=S)N1`, which TGI (HCT-116 colon) is on record?
Answer: > 100 µM

Question: What about the TGI (HCT-15 colon) of the same molecule?
Answer: > 100 µM

Question: And the TGI (CCRF-CEM leukemia)?
Answer: > 100 µM

Question: And the TGI (NCI-H226 lung)?
Answer: > 100 µM

Question: What about the TGI (NCI-H522 lung) of the same molecule?
Answer: > 100 µM

Question: What about the TGI (IGROV1 ovarian) of the same molecule?
Answer: > 100 µM

Question: What about the TGI (HL-60(TB) leukemia) of the same molecule?
Answer: > 100 µM

Question: And the TGI (SK-MEL-5 melanoma)?
Answer: > 100 µM

Question: And the TGI (A549 NSCLC)?
Answer: > 100 µM

Question: And the TGI (HCC-2998 colon)?
Answer: > 100 µM

Question: And the TGI (MDA-N)?
Answer: > 100 µM

Question: And the TGI (OVCAR-8 ovarian)?
Answer: > 100 µM

Question: What about the TGI (HOP-62 NSCLC) of the same molecule?
Answer: > 100 µM

Question: And the TGI (HS 578T breast)?
Answer: > 100 µM

Question: What about the TGI (DU-145 prostate) of the same molecule?
Answer: > 100 µM

Question: And the TGI (MALME-3M melanoma)?
Answer: > 100 µM

Question: What about the TGI (RPMI-8226 leukemia) of the same molecule?
Answer: > 100 µM

Question: What about the TGI (SNB-19 CNS) of the same molecule?
Answer: > 100 µM

Question: What about the TGI (MOLT-4 leukemia) of the same molecule?
Answer: > 100 µM

Question: And the TGI (NCI/ADR-RES ovarian)?
Answer: > 100 µM

Question: What about the TGI (SK-MEL-28 melanoma) of the same molecule?
Answer: > 100 µM

Question: What about the TGI (K-562 leukemia) of the same molecule?
Answer: > 100 µM

Question: And the TGI (UACC-257 melanoma)?
Answer: > 100 µM

Question: And the TGI (SR leukemia)?
Answer: > 100 µM

Question: And the TGI (M14 melanoma)?
Answer: > 100 µM

Question: And the TGI (UO-31 renal)?
Answer: > 100 µM

Question: And the TGI (MDA-MB-231 breast)?
Answer: > 100 µM

Question: What about the TGI (SW-620 colon) of the same molecule?
Answer: > 100 µM

Question: What about the TGI (KM12 colon) of the same molecule?
Answer: > 100 µM

Question: And the TGI (NCI-H23 lung)?
Answer: > 100 µM

Question: What about the TGI (OVCAR-3 ovarian) of the same molecule?
Answer: > 100 µM

Question: And the TGI (786-0 renal)?
Answer: > 100 µM

Question: And the TGI (SF-295 CNS)?
Answer: > 100 µM

Question: What about the TGI (SNB-75 CNS) of the same molecule?
Answer: > 100 µM

Question: And the TGI (MCF7 breast)?
Answer: > 100 µM

Question: What about the TGI (U251 CNS) of the same molecule?
Answer: > 100 µM

Question: What about the TGI (NCI-H460 lung) of the same molecule?
Answer: > 100 µM

Question: And the TGI (PC-3 prostate)?
Answer: > 100 µM

Question: What about the TGI (SN12C renal) of the same molecule?
Answer: > 100 µM

Question: What about the TGI (COLO 205 colon) of the same molecule?
Answer: > 100 µM

Question: And the TGI (SK-MEL-2 melanoma)?
Answer: > 100 µM

Question: And the TGI (ACHN renal)?
Answer: > 100 µM

Question: And the TGI (HOP-92 NSCLC)?
Answer: > 100 µM

Question: What about the TGI (SF-268 CNS) of the same molecule?
Answer: > 100 µM

Question: What about the TGI (T-47D breast) of the same molecule?
Answer: > 100 µM

Question: And the TGI (TK-10 renal)?
Answer: > 100 µM

Question: What about the TGI (SF-539 CNS) of the same molecule?
Answer: > 100 µM

Question: And the TGI (LOX IMVI melanoma)?
Answer: > 100 µM

Question: What about the TGI (EKVX NSCLC) of the same molecule?
Answer: > 100 µM

Question: And the TGI (CAKI-1 renal)?
Answer: > 100 µM

Question: What about the TGI (OVCAR-5 ovarian) of the same molecule?
Answer: > 100 µM

Question: `O=C(O)Cc1c(-c2ccc([N+](=O)[O-])cc2)c(=O)oc2cc(O)ccc12` was tested. Which TGI (HCT-116 colon) did it give?
Answer: 73.6 µM

Question: And the TGI (A498 renal)?
Answer: 70.2 µM

Question: And the TGI (HCT-15 colon)?
Answer: 75.7 µM

Question: And the TGI (CCRF-CEM leukemia)?
Answer: 88.8 µM

Question: And the TGI (NCI-H226 lung)?
Answer: > 100 µM

Question: What about the TGI (NCI-H522 lung) of the same molecule?
Answer: 91.3 µM

Question: And the TGI (SK-OV-3 ovarian)?
Answer: 90 µM

Question: And the TGI (IGROV1 ovarian)?
Answer: > 100 µM

Question: What about the TGI (HL-60(TB) leukemia) of the same molecule?
Answer: 39.4 µM

Question: And the TGI (SK-MEL-5 melanoma)?
Answer: 33.3 µM

Question: And the TGI (HT29 colon)?
Answer: > 100 µM

Question: And the TGI (A549 NSCLC)?
Answer: > 100 µM

Question: And the TGI (HCC-2998 colon)?
Answer: 55.5 µM

Question: And the TGI (MDA-N)?
Answer: > 100 µM

Question: And the TGI (RXF 393 renal)?
Answer: > 100 µM

Question: And the TGI (OVCAR-8 ovarian)?
Answer: 74.1 µM

Question: And the TGI (HS 578T breast)?
Answer: 71.9 µM

Question: What about the TGI (DU-145 prostate) of the same molecule?
Answer: > 100 µM

Question: What about the TGI (MALME-3M melanoma) of the same molecule?
Answer: 59.9 µM

Question: And the TGI (RPMI-8226 leukemia)?
Answer: 61.7 µM

Question: And the TGI (SNB-19 CNS)?
Answer: > 100 µM

Question: And the TGI (MOLT-4 leukemia)?
Answer: 26.8 µM

Question: And the TGI (NCI/ADR-RES ovarian)?
Answer: 54.6 µM

Question: And the TGI (SK-MEL-28 melanoma)?
Answer: > 100 µM

Question: What about the TGI (K-562 leukemia) of the same molecule?
Answer: > 100 µM

Question: And the TGI (UACC-257 melanoma)?
Answer: 53.5 µM

Question: And the TGI (SR leukemia)?
Answer: > 100 µM

Question: And the TGI (M14 melanoma)?
Answer: > 100 µM

Question: And the TGI (UO-31 renal)?
Answer: 83.6 µM

Question: What about the TGI (MDA-MB-435) of the same molecule?
Answer: 93.9 µM

Question: And the TGI (MDA-MB-231 breast)?
Answer: > 100 µM

Question: What about the TGI (SW-620 colon) of the same molecule?
Answer: > 100 µM

Question: And the TGI (KM12 colon)?
Answer: 93.5 µM

Question: And the TGI (NCI-H23 lung)?
Answer: > 100 µM

Question: And the TGI (OVCAR-3 ovarian)?
Answer: 46.2 µM

Question: And the TGI (786-0 renal)?
Answer: > 100 µM

Question: What about the TGI (SF-295 CNS) of the same molecule?
Answer: 49.9 µM

Question: And the TGI (MCF7 breast)?
Answer: 75.7 µM

Question: And the TGI (U251 CNS)?
Answer: 53.5 µM

Question: What about the TGI (NCI-H460 lung) of the same molecule?
Answer: > 100 µM

Question: And the TGI (PC-3 prostate)?
Answer: 94.5 µM

Question: And the TGI (SN12C renal)?
Answer: > 100 µM

Question: What about the TGI (COLO 205 colon) of the same molecule?
Answer: > 100 µM

Question: And the TGI (SK-MEL-2 melanoma)?
Answer: 50.7 µM

Question: What about the TGI (ACHN renal) of the same molecule?
Answer: 91.8 µM

Question: What about the TGI (SF-268 CNS) of the same molecule?
Answer: > 100 µM

Question: And the TGI (TK-10 renal)?
Answer: > 100 µM

Question: And the TGI (SF-539 CNS)?
Answer: 82 µM

Question: What about the TGI (UACC-62 melanoma) of the same molecule?
Answer: > 100 µM

Question: And the TGI (BT-549 breast)?
Answer: 59.1 µM

Question: What about the TGI (LOX IMVI melanoma) of the same molecule?
Answer: > 100 µM

Question: And the TGI (EKVX NSCLC)?
Answer: 83 µM

Question: And the TGI (OVCAR-5 ovarian)?
Answer: 98.9 µM
